Measured values published in patent US10457654B2 (GENENTECH, INC., priority 2017, dated 2019).
Structures can show the parent of a compound that is named as a salt.

Molecular target: hNav1.7 (Homo sapiens (Human), UniProt Q15858)
Test: Tritiated compound binding to membranes from cells expressing hNav1.7 and the β1 subunit, competitive binding (LBA, Ex. 243A)
Conditions: 100 pM [3H]compound, 18 h, room temperature; read-out: Nav1.7 LBA (Ex. 243A) IC50
Protocol: Tritiated Compound Binding to Membranes Isolated from Cells that Heterologously Express hNav1.7 and the β1 Subunit
Preparation of membranes containing recombinantly expressed sodium channels: Frozen recombinant cell pellets were thawed on ice and diluted to 4 times the cell pellet weight with ice cold 50 mM Tris HCl, pH 7.4 buffer. The cell suspensions were homogenized on ice using a motorized glass dounce homogeniser. Homogenates were further diluted 8.4 times with ice cold 50 mM Tris HCl, pH 7.4 buffer and then centrifuged at 200×g at 4° C. for 15 min. The supernatants were collected and centrifuged at 10000×g at 4° C. for 50 min. […] The homogenized membranes were then processed through a syringe equipped with a 26 gauge needle. Protein concentrations were determined by Bradford Assay and the membranes were stored at −80° C.
Radioligand Binding Studies: Saturation experiments. A competitive NaV1.7 inhibitor having a methyl group was tritiated. Three tritiums were incorporated in place of methyl hydrogens to generate [^3H]compound. Binding of this radioligand was performed in 5 mL borosilicate glass test tubes at room temperature. […] Non-specific binding was determined in the presence of 1 μM unlabeled compound. After 18h, the reactants were filtered through GF/C glass fiber filters presoaked in 0.5% w/v polyethylene imine. […] [^3H]compound bound to filters was quantified by liquid scintillation counting.
Competitive binding experiments: Binding reactions were performed in 96-well polypropylene plates at room temperature for 18h. In 360 μL, membranes were incubated with 100 pM [^3H]compound and increasing concentrations of Test Compound. Non-specific binding was defined in the presence of 1 μM unlabeled compound. Reactions were transferred and filtered through 96-well glass fiber/C filter plates presoaked with 0.5% polyethylene imine. The filtered reactions were washed 5 times with 200 μL ice cold buffer containing 0.25% BSA. Bound radioactivity was determined by liquid scintillation counting.
Data Analysis: For saturation experiments, non-specific binding was subtracted from total binding to provide specific binding and these values were recalculated in terms of pmol ligand bound per mg protein. Saturation curves were constructed and dissociation constants were calculated using the single site ligand binding model: Beq=(Bmax*X)/(X+Kd), where Beq is the amount of ligand bound at equilibrium, Bmax is the maximum receptor density, Kd is the dissociation constant for the ligand, and X is the free ligand concentration. For competition studies percent inhibition was determined and IC50 values were calculated using a 4 parameter logistic model (% inhibition=(A+((B−A)/(1+((x/C)^D)))) using XLfit, where A and B are the maximal and minimum inhibition respectively, C is the IC50 concentration and D is the (Hill) slope.

hNav1.7, sequence (Q15858 whole entry, looked up): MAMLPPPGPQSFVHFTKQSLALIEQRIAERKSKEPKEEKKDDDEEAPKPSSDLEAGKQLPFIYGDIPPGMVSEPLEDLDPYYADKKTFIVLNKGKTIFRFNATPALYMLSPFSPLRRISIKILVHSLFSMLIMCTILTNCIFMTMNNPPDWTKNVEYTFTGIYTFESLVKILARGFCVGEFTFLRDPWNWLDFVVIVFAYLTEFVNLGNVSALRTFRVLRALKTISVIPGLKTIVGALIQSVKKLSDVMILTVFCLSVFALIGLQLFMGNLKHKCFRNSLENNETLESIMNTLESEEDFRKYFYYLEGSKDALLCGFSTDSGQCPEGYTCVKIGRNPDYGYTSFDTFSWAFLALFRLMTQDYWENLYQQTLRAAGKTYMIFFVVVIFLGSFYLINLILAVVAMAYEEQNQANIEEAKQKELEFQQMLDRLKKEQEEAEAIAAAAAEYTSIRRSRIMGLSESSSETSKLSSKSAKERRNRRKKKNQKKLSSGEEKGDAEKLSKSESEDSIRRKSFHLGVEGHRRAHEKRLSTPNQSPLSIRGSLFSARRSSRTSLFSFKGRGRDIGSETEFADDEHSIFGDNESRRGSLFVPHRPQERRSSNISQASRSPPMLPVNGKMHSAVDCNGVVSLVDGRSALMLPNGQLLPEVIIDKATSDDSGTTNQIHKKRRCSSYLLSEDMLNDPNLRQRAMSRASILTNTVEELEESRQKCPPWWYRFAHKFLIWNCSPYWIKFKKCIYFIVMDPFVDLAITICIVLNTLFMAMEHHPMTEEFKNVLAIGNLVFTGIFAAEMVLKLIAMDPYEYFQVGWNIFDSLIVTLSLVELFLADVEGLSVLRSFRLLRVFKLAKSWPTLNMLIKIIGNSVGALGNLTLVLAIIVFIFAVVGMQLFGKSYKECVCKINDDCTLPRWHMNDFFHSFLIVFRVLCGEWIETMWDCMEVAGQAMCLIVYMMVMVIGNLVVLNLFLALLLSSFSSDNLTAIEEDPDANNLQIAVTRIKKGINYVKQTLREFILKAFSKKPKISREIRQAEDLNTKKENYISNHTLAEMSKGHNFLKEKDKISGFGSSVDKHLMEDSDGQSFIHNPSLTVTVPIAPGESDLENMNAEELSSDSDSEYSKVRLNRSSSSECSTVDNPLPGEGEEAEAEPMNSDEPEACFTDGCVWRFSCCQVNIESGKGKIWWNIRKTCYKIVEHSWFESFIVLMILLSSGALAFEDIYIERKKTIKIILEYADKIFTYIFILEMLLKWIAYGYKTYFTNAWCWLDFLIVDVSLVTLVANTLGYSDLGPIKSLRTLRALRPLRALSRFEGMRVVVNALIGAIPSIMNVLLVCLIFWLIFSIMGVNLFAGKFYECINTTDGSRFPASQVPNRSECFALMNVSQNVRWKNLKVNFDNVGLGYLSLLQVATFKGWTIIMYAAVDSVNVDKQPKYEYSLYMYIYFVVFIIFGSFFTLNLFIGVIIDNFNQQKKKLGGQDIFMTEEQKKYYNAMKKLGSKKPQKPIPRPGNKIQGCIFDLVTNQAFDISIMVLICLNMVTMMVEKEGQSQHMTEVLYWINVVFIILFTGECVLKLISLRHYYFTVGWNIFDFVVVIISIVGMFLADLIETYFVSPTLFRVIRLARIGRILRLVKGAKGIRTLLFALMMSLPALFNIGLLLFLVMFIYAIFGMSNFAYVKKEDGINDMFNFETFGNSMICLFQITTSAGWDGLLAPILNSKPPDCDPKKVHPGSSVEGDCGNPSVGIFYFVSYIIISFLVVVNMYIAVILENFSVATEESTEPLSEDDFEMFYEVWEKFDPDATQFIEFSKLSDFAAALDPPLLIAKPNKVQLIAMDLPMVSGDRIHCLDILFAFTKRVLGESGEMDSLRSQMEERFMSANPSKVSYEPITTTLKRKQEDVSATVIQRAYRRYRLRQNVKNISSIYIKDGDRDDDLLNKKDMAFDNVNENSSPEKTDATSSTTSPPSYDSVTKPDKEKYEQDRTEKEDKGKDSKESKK
hNav1.7, sequence (Q07699 whole entry partner, looked up): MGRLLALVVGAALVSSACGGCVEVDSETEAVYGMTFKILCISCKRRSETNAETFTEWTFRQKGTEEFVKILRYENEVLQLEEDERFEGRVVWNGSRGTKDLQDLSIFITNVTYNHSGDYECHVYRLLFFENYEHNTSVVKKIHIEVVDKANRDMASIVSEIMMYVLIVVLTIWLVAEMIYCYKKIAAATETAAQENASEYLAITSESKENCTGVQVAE

Compound	IC50
CC1CCCN1[C@H]1CCCC[C@@H]1Nc1cc(F)c(S(=O)(=O)Nc2nccs2)cc1Cl (stereo partly drawn) [Example 44, 5-chloro-2-fluoro-4-(((1 S,2S)-2-(2-methylpyrrolidin-1-yl)cyclohexyl)amino)-N-(thiazol-2-yl)benzenesulfonamide]	74.4 nM
O=S(=O)(Nc1nccs1)c1cc(Cl)c(N[C@H]2CCCC[C@@H]2N2CC(O)C2)cc1F [Example 47, 5-chloro-2-fluoro-4-(((1 S,2S)-2-(3-hydroxyazetidin-1-yl)cyclohexyl)amino)-N-(thiazol-2-yl)benzenesulfonamide]	529 nM
CN(C)[C@@H]1CC=C(C(F)(F)F)C[C@H]1Nc1cc(F)c(S(=O)(=O)Nc2nccs2)cc1Cl [Example 48, 5-chloro-4-(((1R,6R)-6-(dimethylamino)-3-(trifluoromethyl)cyclohex-3-en-1-yl)amino)-2-fluoro-N-(thiazol-2-yl)benzenesulfonamide formate]	127 nM
CN[C@H]1CCCC[C@@H]1Nc1cc(F)c(S(=O)(=O)Nc2nccs2)cc1C1CC1 [Example 51, 5-cyclopropyl-2-fluoro-4-(((1S,2S)-2-(methylamino)cyclohexyl)amino)-N-(thiazol-2-yl)benzenesulfonamide formate]	75.6 nM
CCN[C@H]1CCCC[C@@H]1Nc1cc(F)c(S(=O)(=O)Nc2nccs2)cc1Br [Example 52, 5-bromo-4-(((1S,2S)-2-(ethylamino)cyclohexyl)amino)-2-fluoro-N-(thiazol-2-yl)benzenesulfonamide formate]	8.48 nM
CN(C)[C@H]1CCCC[C@@H]1N1CCOc2cc(S(=O)(=O)Nc3nccs3)ccc21 [Example 54, 4-((1 S,2S)-2-(dimethylamino)cyclohexyl)-N-(thiazol-2-yl)-3,4-dihydro-2H-benzo[b][1,4]oxazine-7-sulfonamide]	97.9 nM
CN(CCO)[C@H]1CCCC[C@@H]1Nc1cc(F)c(S(=O)(=O)Nc2nccs2)cc1C1CC1 [Example 56, 5-cyclopropyl-2-fluoro-4-(((1S,2S)-2-((2-hydroxyethyl)(methyl)amino)cyclohexyl)amino)-N-(thiazol-2-yl)benzenesulfonamide hydrochloride]	3.46 nM
CNCCN(C)[C@H]1CCCC[C@@H]1Nc1cc(F)c(S(=O)(=O)Nc2nccs2)cc1Cl [Example 58, 5-chloro-2-fluoro-4-(((1S,2S)-2-(methyl(2-(methylamino)ethyl)amino)cyclohexyl)amino)-N-(thiazol-2-yl)benzenesulfonamide formate]	3.42 nM
O=S(=O)(Nc1ccncn1)c1cc(Cl)c(N[C@H]2CCCC[C@@H]2N2CCCC2)cc1F [Example 60, 5-chloro-2-fluoro-N-(pyrimidin-4-yl)-4-(((1S,2S)-2-(pyrrolidin-1-yl)cyclohexyl)amino)benzenesulfonamide]	198 nM
O=S(=O)(Nc1ccncn1)c1cc(Cl)c(N[C@H]2CCCC[C@@H]2N2CCC(O)C2)cc1F (stereo partly drawn) [Example 61, 5-chloro-2-fluoro-4-(((1S,2S)-2-(3-hydroxypyrrolidin-1-yl)cyclohexyl)amino)-N-(pyrimidin-4-yl)benzenesulfonamide]	558 nM
CCN[C@H]1CCCC[C@@H]1Nc1cc(F)c(S(=O)(=O)Nc2nccs2)cc1C1CC1 [Example 64, 5-cyclopropyl-4-(((1S,2S)-2-(ethylamino)cyclohexyl)amino)-2-fluoro-N-(thiazol-2-yl)benzenesulfonamide formate]	11.6 nM
O=S(=O)(Nc1nccs1)c1cc(Cl)c(N[C@H]2CCCC[C@@H]2N2CC[C@H](O)C2)cc1F [Example 67, 5-chloro-2-fluoro-4-(((1S,2S)-2-((S)-3-hydroxypyrrolidin-1-yl)cyclohexyl)amino)-N-(thiazol-2-yl)benzenesulfonamide]	17.3 nM
CN(CCO)[C@H]1CCCC[C@@H]1Nc1cc(F)c(S(=O)(=O)Nc2cccc(F)n2)cc1Cl [Example 72, 5-chloro-2-fluoro-N-(6-fluoropyridin-2-yl)-4-(((1S,2S)-2-((2-hydroxyethyl)(methyl)amino)cyclohexyl)amino)benzenesulfonamide]	14.8 nM

Continued, values first:

IC50	Compound
12.7 nM	CC(O)CN(C)[C@H]1CCCC[C@@H]1Nc1cc(F)c(S(=O)(=O)Nc2nccs2)cc1Cl (stereo partly drawn) [Example 45, 5-chloro-2-fluoro-4-(((1 S,2S)-2-((2-hydroxypropyl)(methyl)amino)cyclohexyl)amino)-N-(thiazol-2-yl)benzenesulfonamide]
770 nM	CN(C)[C@H]1CCCC[C@@H]1Nc1cc(F)c(S(=O)(=O)Nc2cscn2)cc1Cl [Example 46, 5-chloro-4-(((1S,2S)-2-(dimethylamino)cyclohexyl)amino)-2-fluoro-N-(thiazol-4-yl)benzenesulfonamide]
42.1 nM	CN(C)[C@H]1CCCC[C@@H]1Nc1cc(F)c(S(=O)(=O)Nc2ncc(F)s2)cc1Cl [Example 49, 5-chloro-4-(((1S,2S)-2-(dimethylamino)cyclohexyl)amino)-2-fluoro-N-(5-fluorothiazol-2-yl)benzenesulfonamide]
58.4 nM	CN[C@H]1CCCC[C@@H]1Nc1cc(F)c(S(=O)(=O)Nc2nccs2)cc1Br [Example 50, 5-bromo-2-fluoro-4-(((1S,2S)-2-(methylamino)cyclohexyl)amino)-N-(thiazol-2-yl)benzenesulfonamide formate]
7.38 nM	CN(C1CNC1)[C@H]1CCCC[C@@H]1Nc1cc(F)c(S(=O)(=O)Nc2cccc(F)n2)cc1Cl [Example 55, 4-(((1S,2S)-2-(azetidin-3-yl(methyl)amino)cyclohexyl)amino)-5-chloro-2-fluoro-N-(6-fluoropyridin-2-yl)benzenesulfonamide]
2.42 nM	CN(C1CNC1)[C@H]1CCCC[C@@H]1Nc1cc(F)c(S(=O)(=O)Nc2nccs2)cc1C1CC1 [Example 57, 4-(((1S,2S)-2-(azetidin-3-yl(methyl)amino)cyclohexyl)amino)-5-cyclopropyl-2-fluoro-N-(thiazol-2-yl)benzenesulfonamide dihydrochloride]
57.8 nM	O=S(=O)(Nc1cccc(F)n1)c1cc(Cl)c(N[C@H]2CCCC[C@@H]2N2CCC(O)C2)cc1F (stereo partly drawn) [Example 62, 5-chloro-2-fluoro-N-(6-fluoropyridin-2-yl)-4-(((1S,2S)-2-(3-hydroxypyrrolidin-1-yl)cyclohexyl)amino)benzenesulfonamide]
29.3 nM	CN(C)[C@H]1CCCC[C@@H]1Nc1cc(F)c(S(=O)(=O)Nc2nccs2)cc1C(F)(F)F [Example 65, 4-(((1S,2S)-2-(dimethylamino)cyclohexyl)amino)-2-fluoro-N-(thiazol-2-yl)-5-(trifluoromethyl)benzenesulfonamide]
16.6 nM	O=S(=O)(Nc1nccs1)c1cc(Cl)c(N[C@H]2CCCC[C@@H]2N2CC[C@@H](O)C2)cc1F [Example 68, 5-chloro-2-fluoro-4-(((1S,2S)-2-((R)-3-hydroxypyrrolidin-1-yl)cyclohexyl)amino)-N-(thiazol-2-yl)benzenesulfonamide]
296 nM	CN(C)[C@H]1CCCC[C@@H]1Nc1cc(F)c(S(=O)(=O)Nc2ccncn2)cc1C1CC1 [Example 69, 5-cyclopropyl-4-(((1S,2S)-2-(dimethylamino)cyclohexyl)amino)-2-fluoro-N-(pyrimidin-4-yl)benzenesulfonamide formate]
3.46 nM	O=S(=O)(Nc1nccs1)c1cc(Cl)c(N[C@H]2CCCC[C@@H]2N2CCCCC2)cc1F [Example 70, 5-chloro-2-fluoro-4-(((1S,2S)-2-(piperidin-1-yl)cyclohexyl)amino)-N-(thiazol-2-yl)benzenesulfonamide formate]
41.3 nM	CCN(C)[C@H]1CCCC[C@@H]1Nc1cc(F)c(S(=O)(=O)Nc2cccc(F)n2)cc1Cl [Example 71, 5-chloro-4-(((1S,2S)-2-(ethyl(methyl)amino)cyclohexyl)amino)-2-fluoro-N-(6-fluoropyridin-2-yl)benzenesulfonamide]
19.7 nM	CCN[C@H]1CCCC[C@@H]1Nc1cc(F)c(S(=O)(=O)Nc2cccc(F)n2)cc1Cl [Example 73, 5-chloro-4-(((1S,2S)-2-(ethylamino)cyclohexyl)amino)-2-fluoro-N-(6-fluoropyridin-2-yl)benzenesulfonamide]
91.7 nM	CN[C@H]1CCCC[C@@H]1Nc1cc(F)c(S(=O)(=O)Nc2cccc(F)n2)cc1Cl [Example 74, 5-chloro-2-fluoro-N-(6-fluoropyridin-2-yl)-4-(((1S,2S)-2-(methylamino)cyclohexyl)amino)benzenesulfonamide]
